SMILES strings stand for the structures. Read-outs that look alike come from different tables or passages of the source. Where a SMILES comes first, the peptide text is derived from it. The star is where a group is joined. Cbz = O=C(OCc1ccccc1)*

Type in all cases: cell-based, S. cerevisiae
The subject of one assay is aneuploid yeast strains. The settings on record: for colony formation of aneuploids on medium containing the agent: compared with wild-type cells, FIG. 13B, E, I. From the text: To determine whether the synthesis of proteins from the additional chromosomes and their presence in the cell represents an increased burden on the cell's protein production machinery, the ability of aneuploid strains to grow under conditions that interfere with transcription, protein synthesis and protein folding was examined.

The next assay concerns YAC-bearing strains. The conditions noted are these: YACs with human or mouse DNA inserts; FIG. 5B. Here is the method:
Strains (from the top): A11311, A16850, A17392, A17393, A17394, A13628, A17396, A17397, A16851.
The phenotypes shared by aneuploids might result from the mere presence of additional DNA or from the RNAs and proteins synthesized from these chromosomes. Thus, the effects of seven yeast artificial chromosomes (YACs) containing human or mouse DNA inserts ranging from approximately 350 kb to 1.6 MB in size were tested (Table 3).
The other phenotypes observed in aneuploids were not shared by the YAC-bearing strains. […] Progression through other cell cycle stages was not affected either as judged by DNA content analysis (FIGS. 5, C and D).

The test system of assay [1] is cdc28-4 and cdc23-1 mutants. The assay can be described thus: Sensitivity of slow-proliferating cdc28-4 and cdc23-1 mutants to protein synthesis inhibitors. The settings on record: mutants severely impaired in cell division even at 23° C.; FIGS. 4C and D.

With `CC(C)C[C@@H](C=O)NC(=O)[C@H](CC(C)C)NC(=O)[C@H](CC(C)C)NC(=O)OCc1ccccc1` [MG 132] (Cbz-Leu-Leu-Leu-aldehyde), the “proliferation of aneuploid strains (ability to form colonies on plates containing the drug)” value in the assay with aneuploid yeast strains (disomes IV, XII, XIII, XIV and XVI, PDR5 deleted, concentrations that wild-type cells grow at, FIG. 4F) is “inhibited”.
Turning to `O=C(O)C1CCN1` (stereo not drawn) [azetidine 2-carboxylic acid], in the assay with aneuploid yeast strains, the “colony formation of aneuploids on medium containing the agent” value (“colony formation of aneuploids” below) is on record as “formed colonies as well as wild-type cells”.
As to `CCCCNC(=O)n1c(NC(=O)OC)nc2ccccc21` [benomyl], the “sensitivity of aneuploid strains” value in the assay on aneuploid yeast strains (10 and 20 μg/ml, FIG. 13F) is given as “About half of the aneuploid strains analyzed exhibited increased sensitivity”.
On to `O=c1cn[nH]c(=O)[nH]1` [6-Azauracil], for which the “colony formation of aneuploids” value in the assay with aneuploid yeast strains is recorded as “formed colonies as well as wild-type cells”.
Regarding `OO` [hydrogen peroxide], the “proliferation of aneuploids in the presence of the agent” value in the assay with aneuploid yeast strains (1 mM, FIG. 13D, G) is “None of the aneuploids showed altered proliferation”.
Turning to `CC(=O)Nc1c2sscc-2n(C)c1=O` [Thiolutin], the proliferation of aneuploids result is given as “inhibited” with aneuploid yeast strains (high concentration 20 μg/ml, all aneuploids except disomes I, X, XIV, FIG. 4B) and “proliferation of only a subset of strains was impaired” in the assay with aneuploid yeast strains (low concentrations 5 μg/ml to 15 μg/ml, FIG. 13H). Also, the “sensitivity of YAC-bearing strains” value with YAC-bearing strains is on record as “did not exhibit increased sensitivity”.
For the molecule `C[C@@H]1C[C@@H]([C@H](O)CC2CC(=O)NC(=O)C2)C(=O)[C@@H](C)C1` [cycloheximide], in the assay on aneuploid yeast strains (0.05 μg/ml, FIG. 4C), the “proliferation of aneuploid strains” value is “proliferation of most was impaired”. Moreover, the “proliferation of all aneuploid strains” value in the assay on aneuploid yeast strains (0.1 μg/ml and 0.2 μg/ml, FIG. 4C) is “decreased proliferation”; in the assay on aneuploid yeast strains (all aneuploid strains, FIG. 4C), “hampered”. Besides, the “sensitivity of YAC-bearing strains” value in the assay with YAC-bearing strains is reported as “did not exhibit increased sensitivity”. In assay [1], the “sensitivity of cdc28-4 and cdc23-1 mutants” value is listed as “did not exhibit increased sensitivity”.
Take `NC(=O)NO` [hydroxyurea]: the “colony formation of aneuploids” value in the assay on aneuploid yeast strains was “formed colonies as well as wild-type cells”.
For `CC[C@H]1/C=C/C=C/C[C@@H](C)[C@H](O)[C@@](C)(O)C(=O)[C@@H](C)[C@H](O)[C@@H](C)C(=O)[C@@H](C)[C@H](O)[C@@H](C)/C=C/C(=O)O[C@@H]2[C@H](C)[C@H](CC1)O[C@]1(CC[C@H](C)[C@H](C[C@@H](C)O)O1)[C@H]2C` [oligomycin], the “sensitivity of aneuploid strains” value with aneuploid yeast strains (increasing concentrations, FIG. 13I) was “did not exhibit increased sensitivity”.

These data come from patent US20080160520A1, “Methods and Composition for Diagnosing and Treating Cancer” (priority 2006, published 2008).
